# Assay results: the supplement of paper PMC11208160
# Assay: recombinant barcode read abundance after kanamycin selection (control-corrected) (log10(CPM+1)); higher = more efficient recombination; sequences stand for … in AGTGCAGAGAAAATCGGCCAGTTTTCTCTGCCTGCAGTCCGCATGCCGT…AGATTTATGCAGCGGACTGCCTTTCTCCCAAAGTGATAAACCGGACAGTATCATGGACCGGTTTTCCCGGTAATCCGTATTTGCAAGGTTGGTTTCACT; site = the 11-nt target
# How it was run: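 A promoter, a target, a barcode and the first 104 bridge RNA bases under J23119 made up each oligo. Oligos were Gibson-cloned into a vector bearing the other 73 bp and a T7-inducible recombinase, then co-electroporated into E. coli with a donor plasmid and plated in duplicate on chloramphenicol/ampicillin LB agar (control) or chloramphenicol/ampicillin/kanamycin with 0.1 mM IPTG. Recombination efficiency is the averaged, control-corrected counts per million of recombinant-junction barcodes. Reported values are log10(CPM+1).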
# 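Note: IS621 recombinase and bridge RNA in Escherichia coli cells.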
row,Sequence,recombinant barcode read abundance (log10)
1,AGTCTGCCTTGGGTTCTAACCTGTTGCCT (site TGTCTGCCTAG),0.0318
2,TATAATGCTTGGGTTCTAACCTGTTGCGT (site TATAATGCTAC),0.335
3,TCAATCCCTTGGGTTCTAACCTGTTGCCT (site TCAATCCCTAG),0.326
4,CGTAAGACTTGGGTTCTAACCTGTTGCCT (site CGTTAGACTAG),0.0104
5,CTTTCGCCTTGGGTTCTAACCTGTTGCCT (site CTCTCGCCTAG),0.102
6,GAAGTAACTTGGGTTCTAACCTGTTGCCT (site GAAGTAACTAG),1.18
7,AGCATAACTTGGGTTCTAACCTGTTGCCT (site AGGAGAACTAG),0.261
8,CATTCACCTTGGGTTCTAACCTGTTGCCT (site CATTCACCTAG),0.39
9,AGTCACACTTGGGTTCTAACCTGTTGCAG (site AGTCACACTCT),1.44
10,CATAGGCCTTGGGTTCTAACCTGTTGCAT (site CATAGGCCTAT),0.811
11,ATCCACCCTTGGGTTCTAACCTGTTGCCT (site ATCCACCCTAG),2.07
12,TACTGATCTTGGGTTCTAACCTGTTGCCT (site TATTGATCTAG),0.0711
13,CGTTCCTCTTGGGTTCTAACCTGTTGCCT (site CTTTCCTCTAG),0.0942
14,GGTGGCTCTTGGGTTCTAACCTGTTGCCA (site GGTGGCTCTTG),0.607
15,GTTTGACCTTGGGTTCTAACCTGTTGCTT (site GTTTGACCTAA),0.532
16,AGTAAGACTTGGGTTCTAACCTGTTGCGT (site AGTAAGACTAG),0.482
17,ATAGGACCTTGGGTTCTAACCTGTTGCAG (site ATATGTCCTCT),0.328
18,CTAGACTCTTGGGTTCTAACCTGTTGCAA (site CTAGACTCTTT),2
19,CGCCTGCCTTGGGTTCTAACCTGTTGCCT (site CGCCAGCCTAG),0.119
20,GTCTAAGCTTGGGTTCTAACCTGTTGCCT (site GTCTGAGCTAG),0.0375
21,ATAGCGACTTGGGTTCTAACCTGTTGCCT (site ATAGCTACTAG),0
22,CCGAGTCCTTGGGTTCTAACCTGTTGCCT (site CCGAGTCCTAG),0.246

row,Sequence,recombinant barcode read abundance (log10)
1,GGGTCGGCTTGGGTTCTAACCTGTTGCGA (site GGGTCGGCTCC),0.552
2,GTCTCTTCTTGGGTTCTAACCTGTTGCTA (site GTCTCTTCTTA),0.306
3,TATTGGACTTGGGTTCTAACCTGTTGCAT (site TATTGGACTTT),0.101
4,CCGTCTACTTGGGTTCTAACCTGTTGCTC (site CCGTCTACTCA),0.209
5,CTCATTCCTTGGGTTCTAACCTGTTGCTT (site CTCATTCCTAT),0.0615
6,TCACCGCCTTGGGTTCTAACCTGTTGCCT (site GCACCGCCTAG),0.0186
7,CTATGAACTTGGGTTCTAACCTGTTGCCA (site GACATTCCTAA),0.0769
8,GAGTGTACTTGGGTTCTAACCTGTTGCAT (site GAGCGTACTAT),0.553
9,CCACCGCCTTGGGTTCTAACCTGTTGCCT (site CCACCGCCTAG),0.139
10,CGAACTACTTGGGTTCTAACCTGTTGCAT (site CGAACTACTAT),0.239
11,GAGCCTACTTGGGTTCTAACCTGTTGCCT (site GAGCCTACTAG),1.29
12,ACGCCTCCTTGGGTTCTAACCTGTTGCTG (site ACGGCTCCTCA),0.269
13,GTCGGCACTTGGGTTCTAACCTGTTGCCT (site GTCGGCACTAG),0.491
14,CAAGTCGCTTGGGTTCTAACCTGTTGCCT (site CAAGTCGCTAG),1.29
15,GTATCTACTTGGGTTCTAACCTGTTGCCT (site GGATCTACTAG),0.25
16,CAAAGTCCTTGGGTTCTAACCTGTTGCGT (site CAAAGTCCTAC),2.24
17,TAGTGGACTTGGGTTCTAACCTGTTGCCA (site TAGTGGCCTTG),0.151
18,GGGATGTCTTGGGTTCTAACCTGTTGCCT (site GTGATGTCTAG),0.211
19,AGAAAGTCTTGGGTTCTAACCTGTTGCGT (site AGAAAGTCTAC),2.36
20,AACAGGGCTTGGGTTCTAACCTGTTGCCG (site TGGCATCCTAC),0.0251
21,ACTTTAACTTGGGTTCTAACCTGTTGCTT (site ACTTTAACTAA),0.217
22,GACTCTACTTGGGTTCTAACCTGTTGCTT (site GAATCTACTAA),0.0131

row,Sequence,recombinant barcode read abundance (log10)
1,GGGGCGGCTTGGGTTCTAACCTGTTGCCT (site GGGGCGCCTAG),0.0428
2,CTCTACACTTGGGTTCTAACCTGTTGCTG (site CTCTACACTCA),1.13
3,ACGGAATCTTGGGTTCTAACCTGTTGCCG (site TAAATCCCTTC),0.245
4,CTACAGACTTGGGTTCTAACCTGTTGCGT (site CTACAGACTGC),0.155
5,GAGTGTACTTGGGTTCTAACCTGTTGCAT (site GAGGGTACTAT),0.029
6,CATGATGCTTGGGTTCTAACCTGTTGCCT (site CAAGATGCTAG),0.256
7,ATCACGTCTTGGGTTCTAACCTGTTGCCT (site ATCACGTCTAG),1.4
8,GTACAGGCTTGGGTTCTAACCTGTTGCAG (site GTACAGGCTCT),0.808
9,GCTTCGGCTTGGGTTCTAACCTGTTGCCT (site GCATCGGCTAG),0.193
10,TATCAGACTTGGGTTCTAACCTGTTGCAG (site TATCAGACTCT),1.45
11,ACTCTAACTTGGGTTCTAACCTGTTGCTT (site ACTTTAACTAA),0.0201
12,TCACCGCCTTGGGTTCTAACCTGTTGCCT (site CCACCGCCTAG),0.141
13,GTTTATACTTGGGTTCTAACCTGTTGCGT (site GATGATACTAC),0.0203
14,AAGGCCGCTTGGGTTCTAACCTGTTGCCT (site AAGGGCGCTAG),0.161
15,TATGGAGCTTGGGTTCTAACCTGTTGCTG (site AATGGGGCTCA),0.523
16,CTATGGACTTGGGTTCTAACCTGTTGCAA (site CTATGGACTCT),0.23
17,ACTTTAACTTGGGTTCTAACCTGTTGCTT (site ACTGTAACTAA),0.0934
18,TAGAAGGCTTGGGTTCTAACCTGTTGCCT (site TAGAAGGCTAG),0.216
19,TCATATTCTTGGGTTCTAACCTGTTGCCT (site TCAGATTCTAG),0.069
20,ATAGCGACTTGGGTTCTAACCTGTTGCCT (site ATAGCGACTAG),1.54
21,CGTGGTCCTTGGGTTCTAACCTGTTGCAT (site CGTGGTCCTAT),1.25
22,TAGTGCTCTTGGGTTCTAACCTGTTGCTC (site TAGAGCTCTCA),0.185

row,Sequence,recombinant barcode read abundance (log10)
1,AGTCACACTTGGGTTCTAACCTGTTGCTG (site AGTCACACTTA),0
2,GGTGAGCCTTGGGTTCTAACCTGTTGCGT (site CACACTACTCA),0.0427
3,AAAGCTACTTGGGTTCTAACCTGTTGCCT (site AAAGCTCCTAA),0.124
4,ACCACGCCTTGGGTTCTAACCTGTTGCCT (site ACCACGCCTAG),0.342
5,ACGGCTTCTTGGGTTCTAACCTGTTGCTA (site ACGGCTTCTTA),0.494
6,TACTAAGCTTGGGTTCTAACCTGTTGCAT (site TACTAAGCTAG),0.274
7,TAGGCGACTTGGGTTCTAACCTGTTGCTT (site TAGTCGACTAA),0
8,GATAGTGCTTGGGTTCTAACCTGTTGCCT (site GATAGTGCTAG),0.536
9,TCTAAGTCTTGGGTTCTAACCTGTTGCCG (site TCTAAGTCTCG),0.137
10,CCACCGCCTTGGGTTCTAACCTGTTGCCT (site TCACCGCCTAG),0.0912
11,TACTAAACTTGGGTTCTAACCTGTTGCCT (site TACTGAACTAG),0.0606
12,ACCGAGACTTGGGTTCTAACCTGTTGCCT (site ACCGGGACTAG),0.0279
13,GTGTATCCTTGGGTTCTAACCTGTTGCAT (site GTGTCTCCTAT),0.279
14,GTGACCTCTTGGGTTCTAACCTGTTGCTG (site GGGACCTCTGA),0.0723
15,TAACTGTCTTGGGTTCTAACCTGTTGCTT (site CCGTCTACTTG),0.121
16,CTTCGTCCTTGGGTTCTAACCTGTTGCGT (site CTTCGTCCTAG),0.126
17,GTCGGAGCTTGGGTTCTAACCTGTTGCCG (site GTCGGAGCTCT),0.435
18,GGCCGGACTTGGGTTCTAACCTGTTGCCT (site GGCCGGTCTAG),0.021
19,GGTATGTCTTGGGTTCTAACCTGTTGCCT (site CGTATGTCTAG),0.0446
20,TAATCGTCTTGGGTTCTAACCTGTTGCCT (site TAATCGTCTAG),1.84
